Results on three molecules are retold here after article PMC10005332, “It Takes Two to Tango, Part II: Synthesis of A-Ring Functionalised Quinones Containing Two Redox-Active Centres with Antitumour Activities” (Molecules, 2023).

For orientation: IC50 means the concentration that inhibits the measured activity by half.

Where two headings read alike, the source gives them in different places.

The subject of data set [1] is PC3 (human prostate adenocarcinoma). Briefly: MTT cytotoxicity assay, PC3. In kind it is cell-based. The settings on record: for IC50: Homo sapiens, MTT, 72 h exposure, three independent experiments, read-out: Cytotoxic activity IC50 (95% CI) PC3; for Selectivity index PC3: ratio of cytotoxicity L929 / PC3. Here is the method: (§1) In this study, the IC50 was obtained in micromolar concentrations, using the colourimetric MTT (3-(4,5-dimethylthiazol-2-yl)-2,5-diphenyl tetrazolium bromide)) assay, and doxorubicin was used as the positive control. […] The activity against the non-tumoural murine fibroblast cell line L929 was also evaluated in order to study the cytotoxicity behaviour of each compound and to understand their respective relative selectivity. The selectivity index was obtained using the ratio of measured cytotoxicity between the L929 cell line and each of the cancer cell lines, and the results are presented in Table 2.
(§2) The in vitro cytotoxicity activity of the compounds was evaluated by the colorimetric MTT (3-(4,5-dimethylthiazol-2-yl)-2,5-diphenyl tetrazolium bromide)) assay using the following tumor cell lines: HCT-116 (colon carcinoma), PC3 (prostate), SNB-19 (glioblastoma), K-562 (myelogenous leukaemia), HL-60 (human promyelocytic leukaemia), B16 (murine melanoma), A549 (human lung carcinoma), KG1 (human acute myeloid leukaemia), and RAJI (human Burkitt’s lymphoma), which were provided by the National Cancer Institute (Bethesda, MD, USA). The L929 cell line (mouse fibroblast L cells NCTC clone 929) employed in this study as a control cell line was obtained from the American Type Culture Collection (Manassas, VA, USA). The cell lines (Table S4) were maintained in flasks containing RPMI 1640 or DMEM medium supplemented with 10% bovive fetal sérum, 100 U/mL penicillin, and 100 μg/mL streptomycin at 37 °C and in 5% CO2 atmosphere. The compounds tested were dissolved in DMSO. Doxorubicin served as the positive control. Cell treatments were performed with three replicates and the cells were mycoplasma free. After 72 h incubation, 100 μL of MTT solution (0.5 mg/mL) was added to each well, and the cells were incubated for 3 h. The supernatant was removed and 100 μL of DMSO was added and the absorbance at 595 nm was measured using Victor Nivo Multimode plate reader (PerkinElmer, Waltham, MA, USA). The absorbances obtained were used to calculate the IC50 values by nonlinear regression employing appropriate statistical software.
(§3) The in vitro cytotoxicity activity of compounds was evaluated by the colorimetric MTT (3-(4,5-dimethylthiazol-2-yl)-2,5-diphenyl tetrazolium bromide)) assay using tumor cell lines: HCT-116 (colon carcinoma), PC3 (prostate), SNB-19 (glioblastoma), K-562 (myelogenous leukaemia), HL-60 (human promyelocytic leukaemia), B16 (murine melanoma), A549 (human lung carcinoma), KG1 (human acute myeloid leukaemia) and RAJI (human Burkitt's lymphoma), which were provided by the National Cancer Institute (Bethesda, MD, USA). The L929 cell line (mouse fibroblast L cells NCTC clone 929) employed in this study as a control cell line was obtained from the American Type Culture […]
(§4) Collection (Manassas, VA, USA). Cell lines (Table 01) were maintained in flasks containing RPMI 1640 or DMEM medium supplemented with 10% bovive fetal sérum, 100 U/mL penicillin, and 100 μg/mL streptomycin at 37 °C and 5% CO2 atmosphere.
(§5) Compounds tested were dissolved in DMSO. Doxorubicin served as positive control. Cell treatments were performed with three replicates and cells were mycoplasma-free. After 72 h incubation, 100 μL of MTT solution (0.5 mg/mL) was added to each well, and cells were incubated for 3 h. The supernatant was removed and 100 μL of DMSO was added and the absorbance at 595 nm was measured using Victor Nivo Multimode plate reader

Data set [2] has as its system HCT-116 (human colorectal carcinoma). Kind of data set: MTT cytotoxicity assay, HCT-116. Particulars: for IC50: Homo sapiens, HCT-116, 72 h, MTT, 72 h exposure, three independent experiments, read-out: Cytotoxic activity IC50 (95% CI) HCT-116; for Selectivity index HCT-116: ratio of cytotoxicity L929 / HCT-116. In kind it is cell-based. The protocol:
as §1, §2, §3, §4, §5

Data set [3] can be described thus: MTT cytotoxicity assay, L929 control line. Particulars: mouse, L929 fibroblast cells (non-tumoral control line), 72 h exposure, read-out: Cytotoxic activity IC50 (95% CI) L929. Type of data set: cell-based, mouse. Here is the method: as §1, §2, §3, §4, §5
For data set [4], the system named is K-562 (human chronic myeloid leukaemia). Kind of data set: MTT cytotoxicity assay, K-562. In kind it is cell-based. The settings on record: for IC50: Homo sapiens, K562, MTT, 72 h exposure, three independent experiments, read-out: Cytotoxic activity IC50 (95% CI) K-562; for Selectivity index K-562: ratio of cytotoxicity L929 / K-562. Here is the method: as §1, §2, §3, §4, §5
A general note: Tetrazolium dyes change colour on reduction, which living cells bring about.

Data set [5] relates to HL60 (human pro-myelocytic leukaemia). Kind of data set: MTT cytotoxicity assay, HL60. In kind it is cell-based. The settings on record: for IC50: MTT, 72 h exposure, three independent experiments, read-out: Cytotoxic activity IC50 (95% CI) HL60; for Selectivity index HL60: ratio of cytotoxicity L929 / HL60. The protocol: as §1, §2, §3, §4, §5
Data set [6] deals with RAJI (human Burkitt’s lymphoma). Briefly: MTT cytotoxicity assay, RAJI. In kind it is cell-based. Particulars: for IC50: MTT, 72 h exposure, three independent experiments, read-out: Cytotoxic activity IC50 (95% CI) RAJI; for Selectivity index RAJI: ratio of cytotoxicity L929 / RAJI. The protocol:
as §1, §2, §3, §4, §5

Data set [7] has as its system SNB-19 (human astrocytoma). Kind of data set: MTT cytotoxicity assay, SNB-19. In kind it is cell-based. The settings on record: for IC50: Homo sapiens, SNB-19, MTT, 72 h exposure, three independent experiments, read-out: Cytotoxic activity IC50 (95% CI) SNB-19; for Selectivity index SNB-19: ratio of cytotoxicity L929 / SNB-19. Here is the method:
as §1, §2, §3, §4, §5

In data set [8] the test system is A549 (human lung carcinoma). Kind of data set: MTT cytotoxicity assay, A549. Type of data set: cell-based. The settings on record: for IC50: Homo sapiens, A549, MTT, 72 h exposure, three independent experiments, read-out: Cytotoxic activity IC50 (95% CI) A549; for Selectivity index A549: ratio of cytotoxicity L929 / A549. Here is the method:
as §1, §2, §3, §4, §5

For data set [9], the system named is KG1 (human acute myeloid leukaemia). Kind of data set: MTT cytotoxicity assay, KG1. Type of data set: cell-based. The settings on record: for IC50: Homo sapiens, MTT, 72 h exposure, three independent experiments, read-out: Cytotoxic activity IC50 (95% CI) KG1; for Selectivity index KG1: ratio of cytotoxicity L929 / KG1. The protocol:
as §1, §2, §3, §4, §5

A further data set concerns B16 (murine melanoma). Briefly: MTT cytotoxicity assay, B16. Type of data set: cell-based. The settings on record: for IC50: Mus musculus, MTT, 72 h exposure, three independent experiments, read-out: Cytotoxic activity IC50 (95% CI) B16; for Selectivity index B16: ratio of cytotoxicity L929 / B16. The protocol: as §1, §2, §3, §4, §5

`CC1(C)OC2=C(C(=O)C(=O)c3ccccc32)C1n1cc(CNC2=CC(=O)c3c(O)cccc3C2=O)nn1` (centres unmarked) [Compound 19b, 3-(4-(((5-hydroxy-1,4-dioxo-1,4-dihydronaphthalen-2-yl)amino)methyl)-1H-1,2,3-triazol-1-yl)-2,2-dimethyl-2,3-dihydronaphtho[1,2-b]furan-4,5-dione]: the IC50 in data set [1] came to 3160 nM; in data set [2], 1700 nM; in [4] it was 3160 nM; in data set [5] (Homo sapiens, HL-60, 72 h), 990 nM; in data set [6] (Homo sapiens, Raji, 72 h), 2550 nM; in [7], 3350 nM. The IC50 in data set [8] is 3160 nM; in data set [9], 5240 nM; in the data set on B16 (murine melanoma) it was 3550 nM. Moreover, the “Selectivity index PC3” value in [1] came out at 1.9. Also, the “Selectivity index HCT-116” value in data set [2] was determined as 3.5. Also, the 50% inhibitory concentration (IC50) at 72 h in data set [3] worked out at 5970 nM. Moreover, the “Selectivity index K-562” value in [4] is on record as 1.9. Besides, the “Selectivity index HL60” value in data set [5] amounted to 6.0. For the same molecule, in [6], the “Selectivity index RAJI” value is reported as 2.3. Also, the “Selectivity index SNB-19” value in [7] is on record as 1.8. The “Selectivity index A549” value in data set [8] turned out to be 1.9. For the same molecule, the “Selectivity index KG1” value in [9] worked out at 1.1. Moreover, the “Selectivity index B16” value in the data set on B16 (murine melanoma) turned out to be 1.7.

`COc1cccc2c1C(=O)C(NCc1cn(C3C4=C(OC3(C)C)c3ccccc3C(=O)C4=O)nn1)=CC2=O` (centres unmarked) [Compound 19c, 3-(4-(((8-methoxy-1,4-dioxo-1,4-dihydronaphthalen-2-yl)amino)methyl)-1H-1,2,3-triazol-1-yl)-2,2-dimethyl-2,3-dihydronaphtho[1,2-b]furan-4,5-dione]: the IC50 was found to be 3500 nM in data set [1]; 1600 nM in [2]; 3060 nM in data set [4]; 1070 nM in data set [5] (Homo sapiens, HL-60, 72 h); 900 nM in [6] (Homo sapiens, Raji, 72 h); 930 nM in data set [6]. Further, the IC50 was found to be 8190 nM in data set [7], 3060 nM in data set [8], 4770 nM in data set [9] and 1740 nM with B16 (murine melanoma). Moreover, the “Selectivity index PC3” value in [1] was determined as 2.6. Also, the “Selectivity index HCT-116” value in data set [2] is recorded as 5.7. In addition, in data set [3], the IC50 at 72 h worked out at 9170 nM. Moreover, the “Selectivity index K-562” value in data set [4] is 3.0. In addition, the “Selectivity index HL60” value in data set [5] turned out to be 8.6. Also, the “Selectivity index RAJI” value in data set [6] was 9.9. The “Selectivity index SNB-19” value in data set [7] was 1.1. For the same molecule, the “Selectivity index A549” value in data set [8] is listed as 3.0. In addition, the “Selectivity index KG1” value in data set [9] turned out to be 1.9. Moreover, in the data set on B16 (murine melanoma), the “Selectivity index B16” value was 5.3.

Take `CC1(C)OC2=C(C(=O)C(=O)c3ccccc32)C1n1cc(CNC2=CC(=O)c3cccc(OCc4ccccc4)c3C2=O)nn1` (centres unmarked) [Compound 19d, 3-(4-(((8-benzyloxy-1,4-dioxo-1,4-dihydronaphthalen-2-yl)amino)methyl)-1H-1,2,3-triazol-1-yl)-2,2-dimethyl-2,3-dihydronaphtho[1,2-b]furan-4,5-dione]: the 50% inhibitory concentration (IC50) in [1] is 1230 nM; in data set [2] it was 530 nM; in data set [4], 1040 nM; in [5] (Homo sapiens, HL-60, 72 h), 300 nM; in [5], 340 nM; in data set [6] (Homo sapiens, Raji, 72 h) it was 1260 nM. Also, the IC50 in data set [7] was determined as 760 nM; in data set [8], 1110 nM; in [9], 2940 nM; in the data set on B16 (murine melanoma), 930 nM. Also, the “Selectivity index PC3” value in data set [1] worked out at 1.9. Moreover, the “Selectivity index HCT-116” value in [2] is given as 4.3. In addition, the IC50 at 72 h in data set [3] was 2290 nM. Besides, the “Selectivity index K-562” value in data set [4] turned out to be 2.2. In addition, the “Selectivity index HL60” value in data set [5] is on record as 6.7. Further, in data set [6], the “Selectivity index RAJI” value was determined as 1.8. The “Selectivity index SNB-19” value in data set [7] was 3.0. Further, the “Selectivity index A549” value in [8] is 2.1. For the same molecule, the “Selectivity index KG1” value in data set [9] is listed as 0.8. The “Selectivity index B16” value in the data set with B16 (murine melanoma) is on record as 2.5.
